In the supplement of paper PMC2824726:

Test system: MDA-MB-231
Experiment: shRNA barcode abundance ratio t_end/t_zero (depletion over 4 weeks of proliferation) (log2 ratio); higher = less depletion (weaker anti-proliferative effect of the shRNA)
Settings: time after t zero 28 days
In short: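 Pooled lentiviral shRNA library transduced into MDA-MB-231 cells at MOI 0.3 and selected in 0.5 μg/ml puromycin. Genomic DNA was taken at 5 days (t_zero) and 33 days post-infection from three biological replicates. Barcodes were PCR-amplified, biotin-labelled and hybridised to Geniom One tiling arrays (six 25-nt probes per barcode) at 45°C for 16 h, with streptavidin phycoerythrin detection. The abundance ratio is the log2 mean, over background-filtered probes, of subarray-median-normalised t_end/t_zero signal ratios.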

Sequence | shRNA barcode abundance ratio t end/t zero (log2)
GGAGAAATTATTGATCCAAAT (targeted gene: NAIP) | 0.608
GGAGAGAACTGTCATTTCTAA (targeted gene: IGF1R) | 0.393
GGAGTGAGATTGATCTGTTTA (targeted gene: ANXA5) | -0.0616
GGAGTGCTCATTGTGAAGAAA (targeted gene: SORT1) | -0.0388
GGATAGACTGGTCTAGAATAA (targeted gene: RALBP1) | 0.174
GGATATTGAACAGAGTATTAA (targeted gene: ANXA4) | -0.0211
GGATGCTTCTGAATAGAAATA (targeted gene: BIRC7) | 0.0929
GGATGTTGGAAATTACTATTA (targeted gene: HDAC1) | 0.178
GGATTCTCAACACTTTGAATT (targeted gene: ANXA4) | 0.244
GGCAAATCCTTGTTTAACAAA (targeted gene: BIRC6) | 0.616
GGCACAACACTAATTACCATT (targeted gene: PROK2) | 0.0935
GGCAGCTTCCTTGAACCATTA (targeted gene: SPHK1) | -0.334
GGCAGGTATTTGACATATTAA (targeted gene: NFKB1) | 0.217
GGCATCAGATGAATTGTTAAT (targeted gene: IL3) | 0.161
GGCATTAGTTTCTCAGTTAAA (targeted gene: MLH1) | 0.141
GGCCAGAATATCATTGTCATA (targeted gene: RBKS) | -0.309
GGCCATGCCTGTTTACAAGAA (targeted gene: TP73) | -0.24
GGCCATTATGCACAGGTTGAA (targeted gene: CD40LG) | 0.119
GGCCATTCATTTAATGTGCAT (targeted gene: HBXIP) | 0.497
GGCCATTGTCACAGAGGATAA (targeted gene: MLH1) | 0.62

Sequence | shRNA barcode abundance ratio t end/t zero (log2)
GGCCCAAATTATCAAGCTAAT (targeted gene: CRYAB) | -0.348
GGCCCAAGGTCCAAGTAGAAT (targeted gene: HSPA8) | 0.332
GGCCCAGTGTTTCTTCTGCTT (targeted gene: BIRC5) | -0.948
GGCCCATACCTTCAAATATTA (targeted gene: NFKB1) | 0.381
GGCCTGACAATGGTACCTATT (targeted gene: HDAC3) | -1.93
GGCCTTGGAACTGATGAAGAT (targeted gene: ANXA1) | 0.259
GGCTACAGCCTCGATTTATAT (targeted gene: IGFBP3) | 0.0568
GGCTACTATGACCAATAGAAG (targeted gene: BFAR) | 0.107
GGCTAGACTTAGATTCATTAA (targeted gene: VHL) | 0.486
GGCTTTACTCCGTAACAGATT (targeted gene: RHOA) | -2.14
GGCTTTGTCTTTACAGGTAAA (targeted gene: NAIP) | 0.603
GGGAATCCAGTGTGTGAAGAA (targeted gene: RELA) | 0.121
GGGAATGATCAGATTCCTTTA (targeted gene: BFAR) | 0.171
GGGAGGTAAATCAACATATAT (targeted gene: MSH2) | 0.109
GGGCAAGTTTCCATCATCTAT (targeted gene: TDGF1) | -0.11
GGGCATTTGAGAAATGCATAT (targeted gene: IL7) | 0.11
GGGTAGAAATTGGCTTCATAA (targeted gene: WRN) | -0.246
GGTAAAGATGGCAAACAATAT (targeted gene: IL7) | 0.391
GGTAGCAATTGCCTGAATAAT (targeted gene: IL7) | -0.149
GGTATTCTCATCAAGAAACTT (targeted gene: BCL2A1) | 0.349

Sequence | shRNA barcode abundance ratio t end/t zero (log2)
GGTCACTTTGTATATAGAATT (targeted gene: HBXIP) | 0.371
GGTCTCCTTAGGGAACATAAA (targeted gene: ATM) | -0.27
GGTCTTACTGAAGTAACACAA (targeted gene: TAX1BP1) | 0.346
GGTGAAGATATATTCCTCCAA (targeted gene: PTEN) | 0.129
GGTGACTATACAGTCATTTAA (targeted gene: ATM) | -0.167
GGTGCCTTGAGGAATACAGAA (targeted gene: NT5C3) | 0.235
GGTGTCTTTACCAAACTTATT (targeted gene: HSPA9) | -0.751
GGTTTGTGCCTTACATTATTA (targeted gene: PSEN1) | -1.92
TACTGTCTTTGAGAACTATAT (targeted gene: RHOC) | 0.0813
TCAAATTGCGGCACATGTCAT (targeted gene: CD40LG) | -0.0903
TCAATCAAAGGGAAACTTGAA (targeted gene: TPT1) | -0.105
TCACACTGGTTCTCAATGAAA (targeted gene: BAG1) | 0.198
TCACAGAGCTTTGTAAGCAAA (targeted gene: NME5) | 0.139
TCAGGAAATGTTATCAGCAAA (targeted gene: BNIP2) | 0.477
TCCAATTAACTTCTCCATAAT (targeted gene: MTL5) | 0.712
TCTCTTAAAGTTGATATCTTA (targeted gene: TNFAIP3) | 0.213
TCTGAGGAAGAGATCATCAAA (targeted gene: PEA15) | -0.849
TGGGAAGAACTTTAAGGATAT (targeted gene: SORT1) | -0.167
TGTTAACAAATGTGGCAATTA (targeted gene: TPT1) | 0.164
